# How the values were obtained:
# polymyositis = experiment: Polymyositis in the same patient (Example 4); format: in vivo, human; conditions: 50 mg daily, before hyaluronate
# Method: A person suffering from colon cancer had been unable to tolerate their colostomy and demanded that their surgeon remove the colostomy and reconnect their colon. They refused chemotherapy. They were given a formulation of 1% sodium hyaluronate (Collaborative Laboratories, Inc) which was prepared with a mixture of molecular weights of hyaluronate (as described in EXAMPLE 1). When they began taking the hyaluronate preparation, their CEA was 70.1. They have taken the hyaluronate at a dose of 10 mg three times per day mucosally and after 6 months of treatment their CEA has dropped to 4.1. They have taken no other treatments. This patient had also suffered from polymyositis for approximately 15 years. For this condition they were taking 50 mg of Prednisone daily with little relief. […] After 6 months of treatment with hyaluronate, they have been able to reduce their Prednisone to 5 mg every other day. […] The polymyositis that was successfully treated in this example was thought to represent treatment of a disease associated with the adhesion cascade or autoimmune disease.
# [1] = test system: Attention Deficit Hyperactivity Disorder (ADHD) complicated by Turret's Syndrome; experiment: Treatment of a child with ADHD complicated by Turret's Syndrome (Example 2); format: in vivo, human; conditions: earlier treatment, discontinued 1.5 year before
# Method: This treatment was not complicated by concurrent treatment with drugs such as Ritalin as their parents were adverse to using this medication. Therefore, any response observed was related to the use of the complex carbohydrates of the present invention. They took 10 mg in the morning and 10 mg in the evening, using the solution as a mouthwash (holding it in their mouth for about 10 to 20 seconds and then swallowing). […] However, within 15 minutes of their receiving the missing dose, they became calm and returned to normal. This child has remained totally under control for 6 months. This had never been observed before, even when they were taking Ritalin. […] It has been concluded that a disease typically thought to be related to a nervous disorder or to allergies was treatable by the complex carbohydrates of the present invention.
# [2] = test system: attention deficit disorder (ADD); experiment: Adult with attention deficit disorder, daily response (Example 5, FIG. 1); format: in vivo, human; conditions: earlier treatment
# Description: The subject adult was a person who had suffered all their life with attention deficit disorder (ADD).
# They never knew what their problem was until recently when they were diagnosed. They described their childhood as unfocused and explained that they felt as though they were in a constant mental fog—unable to think clearly, or for that matter, unable to focus on a thought at all. […] Exposure to only a few minutes in a moldy room caused this individual to become dazed, unable to think, focus or even stay awake. They had only been able to do menial jobs. They spent most of their time staring out the window with no thoughts in their mind and, even if they tried, could not focus on a thought or task. They described themself as believing all their life that they were just stupid and unable to learn. They had been to multiple physicians and psychiatrists seeking treatment with no success. They had taken Ritalin with little relief. It allowed them to function partially but they were always tired and unable to focus on anything but the simplest of tasks. They agreed to take the oral sodium hyaluronate product and their family would report how they reacted. […]
# FIG. 1 plots the response of this patient while taking the compositions of the present invention. […] If there were no significant negative or positive responses during a day, the reaction rate was recorded as 0. […]
# ADHD = experiment: child with ADHD, behaviour scores (Example 7, FIG. 2); format: in vivo, human; conditions: prescribed daily, earlier treatment
# Description: The subject child was a person who has suffered with ADHD all their life. […] Additionally, their behavior was such that they could not socialize with other children or with adults. When in contact with other children they were unable to play, often became angered and caused physical harm to others. They had been under treatment by several physicians, psychologists and allergists all their life but none were able to help their condition. The allergists determined that they had allergies to most all foods, dust, molds, soaps and just about everything in their environment. At one time they were prescribed Ritalin daily. […]
# This child attended a special school in which their Teachers reported their daily activity to their parents so that they could try to monitor their eating habits. […] Their response was monitored by using the numerical score provided by their teachers and averaging it with a numerical score of their behavior at home provided by their parents. […] Their parents have commented that they have awakened in the morning and is happy, cheerful and cooperative in getting ready for school. […] If their behavior was belligerent, bossy, angry or non-cooperative they were scored as a −40 for the day. If their reactions to foods or environmental stimuli produced such a response it was recorded as a −40. If they responded as a normal person, the score was recorded as 0. […]
# lick granulomas = experiment: Lick granuloma of a Labrador retriever (Example 12); format: in vivo, dog; conditions: cortisone injections and hydrocortisone creams
# Method: An eleven year old Labrador retriever had suffered from lick granulomas for at least 3 years. […] This dog's granuloma was located on the left hind leg above the pasturn. The swelling around the leg measured 8 inches in diameter and the open wound measured 4×3 inches. […] This dog was injected with 10 mg of sodium hyaluronate having a molecular weight ranging from 30,000 to 400,000 (1.0 mL intramuscularly—equivalent to 10 mg). The open wound began to heal. This injection was followed up with topical application of a low molecular weight hyaluronic acid prepared by making a 1% (wt/vol) solution of hyaluronic acid (Medex Ltd) containing 1% Wintergreen Oil (Loranne Oil), 1% Spearmint Oil (Loranne Oil) and 0.5% Peppermint Oil (Loranne Oil). The topical formulation was applied at least two times per day. […] The dog has not licked this area since treatment began. Therefore, the complex carbohydrates of the present invention are able to successfully treat lick granulomas (a previously untreatable condition of dogs) and eliminate the cause of the licking.
# chronic eczema = experiment: Chronic eczema with yeast infection (Example 14); parameters: species or system human; conditions: in vivo
# Description: A person suffered from chronic eczema—scaly and red areas on their neck and arms. They had also been diagnosed with a yeast infection associated with the eczema. […] They initially used a topical preparation prepared according to this invention. This contained a mixture of low and high molecular weight sodium hyaluronate (prepared as in EXAMPLE 1) mixed with 1% Wintergreen Oil, 1% Spearmint Oil, and 0.5% Peppermint Oil. They applied it topically for four weeks. […] However, there was still itching and redness. They then began to orally take the 1% mixture, of low and high molecular weight sodium hyaluronate described in example 1. They reported that within 2 weeks all signs of the eczema had disappeared, the itching was gone and they felt better than they had felt for years. The oral dose required was 5 mg TID for this 91 pound person. Therefore, the dose was […].
# interstitial cystitis = experiment: Interstitial cystitis patient (Example 8); format: in vivo, human; conditions: 100 mg per day of macrodantin and 20 mg per day of feldene, earlier treatment
# Method: Additionally, they had taken 200 mg TID of Elmiron to reduce the inflammation in the bladder lining. […] In order to sleep they took Prosed/DS, Ultram, Hydroxyzine HCl, Cardura, Amitriptyline. Sometimes all were taken at some time during the day or night. […] This patient was supplied with the mixed molecular weight preparation of sodium hyaluronate as described in EXAMPLE 1. They were also supplied with a topical preparation containing 1% wt/vol. Sodium hyaluronate at a molecular weight of <30,000 combined with 1% Oil of Wintergreen, 0.5% Spearmint Oil and 0.2% Peppermint Oil. They took 10 mg of the oral preparation 4 times per day. The last dose was taken before going to bed. Additionally, at bedtime, they rubbed their lower abdomen (over the bladder) with the topical preparation.
# joint pain = conditions: oral doses between 1000 and 3000 mg/day (>15 mg/Kg); cited from earlier work
# anti-coagulant activity = conditions: cited from earlier work
compound,measurement,setting,value
C[C@]12C=CC(=O)C=C1CC[C@@H]1[C@@H]2C(=O)C[C@@]2(C)[C@H]1CC[C@]2(O)C(=O)CO [Prednisone],relief of polymyositis,polymyositis,little relief
COC(=O)C(c1ccccc1)C1CCCCN1 (centres unmarked) [Ritalin],side effects,[1],problems with side effects
same,relief of ADD,[2],little relief
same,reaction while taking the drug,ADHD,suffered hallucinations and became even more uncontrollable
C[C@]12CCC(=O)C=C1CC[C@@H]1[C@@H]2C(=O)C[C@@]2(C)[C@H]1CC[C@]2(O)C(=O)CO [cortisone],success of earlier treatment of lick granuloma,lick granulomas,little success
same,effect of earlier treatment on eczema,chronic eczema,no significant effect
CN1C(C(=O)Nc2ccccn2)=C(O)c2ccccc2S1(=O)=O [feldene],side effects,interstitial cystitis,severe side effects
C[C@]12CCC(=O)C=C1CC[C@@H]1[C@@H]2[C@@H](O)C[C@@]2(C)[C@H]1CC[C@]2(O)C(=O)CO [hydrocortisone],success of earlier treatment of lick granuloma,lick granulomas,little success
O=C1CN(/N=C/c2ccc([N+](=O)[O-])o2)C(=O)N1 [macrodantin],side effects,interstitial cystitis,severe side effects
chondroitin sulfate,time until relief from joint pain,joint pain,6-9 months
low molecular weight heparin,anti-coagulant activity,anti-coagulant activity,free of anti-coagulant activity
